# Laboratory results taken from paper PMC7567097, “A nanoluciferase SARS-CoV-2 for rapid neutralization testing and screening of anti-infective drugs for COVID-19” (Nature Communications, 2020).
# Values joined by “and” are separate entries in the source; they are usually repeats but may differ in a detail not shown here. Equal entries are not always repeated. Where two headings read alike, the source gives them in different places.
# What was measured:
# COVID-19 [1] = test system: COVID-19; parameters: method as in PMID 32392282; details: >1400 patients, compared with no treatment; cited from earlier work
# COVID-19 [2] = test system: COVID-19; parameters: method as in PMID 32649078; details: 1063 patients hospitalized with COVID-19; placebo group 15 days; cited from earlier work
# SARS-CoV-2-Nluc [3] = test: microbe, parasite or virus in culture; assay type: cell-based; details: Severe acute respiratory syndrome coronavirus 2, Vero C1008, 48 h
# [4] = Cytotoxicity assay (CCK-8, 72 h) in Vero E6 cells; assay type: cell-based, African green monkey; details: African green monkey, Vero E6 cells; for viability at 72 h: Vero, two replicates, read-out: cell viability (% of DMSO control); for CC50 at 72 h: 3-day cytotoxicity
# Vero E6 cells = test: Cytotoxicity assay (CCK-8, 72 h) in Vero E6 cells; assay type: cell-based, African green monkey; details: Vero, two replicates
# in vitro = details: human; for viability: cell viability (% of DMSO control)
# SARS-CoV-2-Nluc [5] = test: microbe, parasite or virus in culture; assay type: cell-based
# [6] = Severe acute respiratory syndrome coronavirus 2, 48 h
# [7] = Severe acute respiratory syndrome coronavirus 2, read-out: EC50 (µM) Replicate 1
# [8] = Severe acute respiratory syndrome coronavirus 2, read-out: EC50 (µM) Replicate 2
compound,measurement,setting,value
CC[C@H]1OC(=O)[C@H](C)[C@@H](O[C@H]2C[C@@](C)(OC)[C@@H](O)[C@H](C)O2)[C@H](C)[C@@H](O[C@@H]2O[C@H](C)C[C@H](N(C)C)[C@H]2O)[C@](C)(O)C[C@@H](C)CN(C)[C@H](C)[C@@H](O)[C@]1(C)O [azithromycin],association of treatment with fatality rate among hospitalized patients,COVID-19 [1],not associated with significant differences in fatality rate
CCN(CCO)CCCC(C)Nc1ccnc2cc(Cl)ccc12 (stereo not shown) [hydroxychloroquine],association of treatment with fatality rate among hospitalized patients,COVID-19 [1],not associated with significant differences in fatality rate
CCC(CC)COC(=O)[C@H](C)N[P@](=O)(OC[C@H]1O[C@@](C#N)(c2ccc3c(N)ncnn23)[C@H](O)[C@@H]1O)Oc1ccccc1 [Remdesivir],recovery time,COVID-19 [2],11 days
same,EC50,SARS-CoV-2-Nluc [3],1.28 µM
same,viability at 72 h,[4]; Concentration 0.00152416,100%
same,viability at 72 h,[4]; Concentration 0.00457247,102%
same,viability at 72 h,[4]; Concentration 0.0137174,91.3%
same,viability at 72 h,[4]; Concentration 0.0411523,104%
same,viability at 72 h,[4]; Concentration 0.123457,80.3%
same,viability at 72 h,[4]; Concentration 0.37037,80.3%
same,viability at 72 h,[4]; Concentration 1.11111,102%
same,viability at 72 h,[4]; Concentration 3.33333,87.9%
same,viability at 72 h,[4]; Concentration 10,68%
same,CC50 at 72 h,[4],> 50 µM
same,cell viability (% of DMSO control),Vero E6 cells; Concentration 0.00152416,98.69%
same,cell viability (% of DMSO control),Vero E6 cells; Concentration 0.00457247,100.09%
same,cell viability (% of DMSO control),Vero E6 cells; Concentration 0.0137174,99.13%
same,cell viability (% of DMSO control),Vero E6 cells; Concentration 0.0411523,93.89%
same,cell viability (% of DMSO control),Vero E6 cells; Concentration 0.123457,91.88%
same,cell viability (% of DMSO control),Vero E6 cells; Concentration 0.37037,90.48%
same,cell viability (% of DMSO control),Vero E6 cells; Concentration 1.11111,90.39%
same,cell viability (% of DMSO control),Vero E6 cells; Concentration 3.33333,89.52%
same,cell viability (% of DMSO control),Vero E6 cells; Concentration 10,70.92%
same,CC50,in vitro; CC50,32.5 µM
same,CC50,in vitro; CC50 (µM) Replicate 1,29 µM
same,CC50,in vitro; CC50 (µM) Replicate 2,36.4 µM
same,viability,in vitro; Concentration 0.00152416,100%
same,viability,in vitro; Concentration 0.00457247,99.8%
same,viability,in vitro; Concentration 0.0137174,102%
same,viability,in vitro; Concentration 0.0411523,102%
same,viability,in vitro; Concentration 0.123457,101%
same,viability,in vitro; Concentration 0.37037,96.9%
same,viability,in vitro; Concentration 1.11111,100%
same,viability,in vitro; Concentration 3.33333,101%
same,viability,in vitro; Concentration 10,84.9%
same,cell viability (% of DMSO control),A549-hACE2 cells; Concentration 0.00152416,98.72%
same,cell viability (% of DMSO control),A549-hACE2 cells; Concentration 0.00457247,97.64%
same,cell viability (% of DMSO control),A549-hACE2 cells; Concentration 0.0137174,95.55%
same,cell viability (% of DMSO control),A549-hACE2 cells; Concentration 0.0411523,98.85%
same,cell viability (% of DMSO control),A549-hACE2 cells; Concentration 0.123457,98.18%
same,cell viability (% of DMSO control),A549-hACE2 cells; Concentration 0.37037,92.18%
same,cell viability (% of DMSO control),A549-hACE2 cells; Concentration 1.11111,95.21%
same,cell viability (% of DMSO control),A549-hACE2 cells; Concentration 3.33333,90.42%
same,cell viability (% of DMSO control),A549-hACE2 cells; Concentration 10,87.86%
same,CC50,A549-hACE2 cells; human,32.7 ± 5.2 µM
same,EC50,SARS-CoV-2-Nluc [5]; [6],0.115 ± 0.007 µM
same,EC50,SARS-CoV-2-Nluc [5]; [7],0.11 µM
same,EC50,SARS-CoV-2-Nluc [5]; [8],0.12 µM
CCN(CC)CCCC(C)Nc1ccnc2cc(Cl)ccc12 (stereo not shown) [Chloroquine],EC50,SARS-CoV-2-Nluc [3],3.52 µM
same,viability at 72 h,[4]; Concentration 0.00152416,112%
same,viability at 72 h,[4]; Concentration 0.00457247,113%
same,viability at 72 h,[4]; Concentration 0.0137174,100%
same,viability at 72 h,[4]; Concentration 0.123457,83.5%
same,viability at 72 h,[4]; Concentration 0.37037,80.1%
same,viability at 72 h,[4]; Concentration 1.11111,81.4%
same,viability at 72 h,[4]; Concentration 3.33333,75.3%
same,viability at 72 h,[4]; Concentration 10,76.5%
same,CC50 at 72 h,[4],> 50 µM
same,cell viability (% of DMSO control),Vero E6 cells; Concentration 0.00152416,109.35%
same,cell viability (% of DMSO control),Vero E6 cells; Concentration 0.00457247,115.44%
same,cell viability (% of DMSO control),Vero E6 cells; Concentration 0.0137174,94.62%
same,cell viability (% of DMSO control),Vero E6 cells; Concentration 0.0411523,86.94% and 111.97%
same,cell viability (% of DMSO control),Vero E6 cells; Concentration 0.123457,83.36%
same,cell viability (% of DMSO control),Vero E6 cells; Concentration 0.37037,78.26%
same,cell viability (% of DMSO control),Vero E6 cells; Concentration 1.11111,94.9%
same,cell viability (% of DMSO control),Vero E6 cells; Concentration 3.33333,72.03%
same,cell viability (% of DMSO control),Vero E6 cells; Concentration 10,73.87%
same,CC50,in vitro; CC50,> 50 µM
same,CC50,in vitro; CC50 (µM) Replicate 1,> 50 µM
same,CC50,in vitro; CC50 (µM) Replicate 2,> 50 µM
same,viability,in vitro; Concentration 0.00152416,105%
same,viability,in vitro; Concentration 0.00457247,106%
same,viability,in vitro; Concentration 0.0137174,103%
same,viability,in vitro; Concentration 0.0411523,104%
same,viability,in vitro; Concentration 0.123457,105%
same,viability,in vitro; Concentration 0.37037,104%
same,viability,in vitro; Concentration 1.11111,104%
same,viability,in vitro; Concentration 3.33333,104%
same,viability,in vitro; Concentration 10,108%
same,cell viability (% of DMSO control),A549-hACE2 cells; Concentration 0.00152416,94.76%
same,cell viability (% of DMSO control),A549-hACE2 cells; Concentration 0.00457247,100.03%
same,cell viability (% of DMSO control),A549-hACE2 cells; Concentration 0.0137174,97.21%
same,cell viability (% of DMSO control),A549-hACE2 cells; Concentration 0.0411523,100.16%
same,cell viability (% of DMSO control),A549-hACE2 cells; Concentration 0.123457,98.53%
same,cell viability (% of DMSO control),A549-hACE2 cells; Concentration 0.37037,99.78%
same,cell viability (% of DMSO control),A549-hACE2 cells; Concentration 1.11111,100.72%
same,cell viability (% of DMSO control),A549-hACE2 cells; Concentration 3.33333,101.54%
same,cell viability (% of DMSO control),A549-hACE2 cells; Concentration 10,101.98%
same,EC50,SARS-CoV-2-Nluc [5]; [6],1.32 ± 0.36 µM
same,EC50,SARS-CoV-2-Nluc [5]; [7],1.06 µM
same,EC50,SARS-CoV-2-Nluc [5]; [8],1.57 µM
